According to US20250186604A1, “ANTI-PSMA ANTIBODY CONJUGATES” (ADC THERAPEUTICS SA, priority 2023, published 2025):
Starred links: 1 amine or outer side, 2 acyl side, 3 side chain; linkers in the order of their positions; H or OH if unused. Non-standard residues stand in square brackets, D forms with d. Residues, ends and D or L forms follow the SMILES beside them. *: point of attachment. Exatecan = CC[C@@]1(O)C(=O)OCc2c1cc1n(c2=O)Cc2c-1nc1cc(F)c(C)c3c1c2[C@@H](N*)CC3; Propanoyl(3-maleimido) = O=C1C=CC(=O)N1CCC(=O)*; PABC = O=C(OCc1ccc(N[*:1])cc1)[*:2]

Assays:
[1] = Aggregation during conjugation to a test antibody (% monomer by SEC); format: physicochemical; details: drug linker conjugated to a test antibody
Description: 2 mg of a test monoclonal antibody at 8.87 mg/ml was pH adjusted with 5% 0.5 M Tris, 0.025 M EDTA, pH 8.5 and reduced with 2.3 mol. eq. TCEP and then conjugated with 6mol. eq. drug linker. After buffer exchange into 30 mM Histidine, 175 mM Sucrose pH 6.0/PBS, the drug to antibody ratio (DAR) was by HIC/LC-MS and % Monomer by size exclusion chromatography (SEC). Percentage monomer values of 95% or greater are assessed as low aggregation.
Aggregation levels were assessed during the conjugation to a test antibody. Conjugation was performed as described above for ADC-1.
During conjugation, we are ideally targeting a monomer content or percentage monomer of 95% or above. Low percentage monomer values usually translate to a higher degree of aggregation. One could therefore agree that percentage monomer values of 95% or higher mean very low levels of aggregation or none, whereas values below this threshold often translate to higher levels of aggregation.

[2] = RP-HPLC retention time correlated with hydrophobicity; format: physicochemical; details: high Rt = hydrophobic, low Rt = hydrophilic
Description: • Column: Phenomenex Gemini NX 5 m, C18, 110Å, 150×4.6 mm • Instrument: Shimadzu LC-2030 • Mobile phase: A) water (0.05% TFA), B) acetonitrile (0.05% TFA) • Gradient: 20-70% B over 15 min, flow 1.0 mL/min
A correlation study was also carried out using Reverse-Phase HPLC (RP-HPLC). The two constructs were injected in RP-HPLC and retention times (Rt) correlated with hydrophobicity—i.e., high Rt was associated to hydrophobic constructs whereas low Rt to hydrophilic ones.

[3] = target: T1, topo I/DNA complex (Homo sapiens, UniProt P11387); details: versus SN38 (the active metabolite of irinotecan); cited from earlier work
T1 sequence (P11387 1-765): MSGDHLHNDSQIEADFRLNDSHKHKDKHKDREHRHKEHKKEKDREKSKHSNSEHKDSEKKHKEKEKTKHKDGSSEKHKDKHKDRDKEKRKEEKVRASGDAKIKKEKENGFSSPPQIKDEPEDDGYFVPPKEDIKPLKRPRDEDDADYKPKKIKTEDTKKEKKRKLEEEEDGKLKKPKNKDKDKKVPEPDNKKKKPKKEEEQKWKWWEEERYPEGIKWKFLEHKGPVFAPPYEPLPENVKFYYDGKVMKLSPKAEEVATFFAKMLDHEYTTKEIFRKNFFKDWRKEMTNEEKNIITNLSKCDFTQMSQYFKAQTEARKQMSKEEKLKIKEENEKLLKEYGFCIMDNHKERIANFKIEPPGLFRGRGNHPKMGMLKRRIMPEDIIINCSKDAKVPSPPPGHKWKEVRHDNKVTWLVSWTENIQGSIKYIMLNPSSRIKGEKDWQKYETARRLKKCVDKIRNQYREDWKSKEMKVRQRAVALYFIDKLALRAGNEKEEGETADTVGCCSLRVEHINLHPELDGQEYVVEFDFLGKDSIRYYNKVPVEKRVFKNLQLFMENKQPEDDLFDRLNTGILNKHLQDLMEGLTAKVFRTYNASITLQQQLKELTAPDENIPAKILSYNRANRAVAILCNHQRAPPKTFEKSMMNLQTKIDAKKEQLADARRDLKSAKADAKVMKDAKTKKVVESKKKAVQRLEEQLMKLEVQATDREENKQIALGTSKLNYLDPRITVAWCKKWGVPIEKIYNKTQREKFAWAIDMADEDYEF

[4] = test system: a variety of cell lines; details: versus SN38; cited from earlier work

SMILES	Aggregation (% monomer) ([1]; SEC, 95% or greater = low aggregation)	Aggregation ([1]; grade in words)	Rt [2]	potency relative to SN38 at stabilizing the topo I/DNA complex [3]	potency relative to SN38 as a cytotoxin [4]
CC[C@@]1(O)C(=O)OCc2c1cc1n(c2=O)Cc2c-1nc1cc(F)c(C)c3c1c2[C@@H](NC(=O)OCc1ccc(NC(=O)[C@H](C)NC(=O)[C@@H](NC(=O)CNC(=O)CNC(=O)CNC(=O)CNC(=O)CNC(=O)CCN2C(=O)C=CC2=O)C(C)C)cc1)CC3 [Mal-Gly5-VA-PABC-Exatecan] ({Propanoyl(3-maleimido)}-GGGGGVA[PABC]-Exatecan)	(98%)	None	9.76 min	–	–
CC[C@@]1(O)C(=O)OCc2c1cc1n(c2=O)Cc2c-1nc1cc(F)c(C)c3c1c2[C@@H](N)CC3 [Exatecan]	–	–	–	about 2.5 fold	about 2.5 fold
